Measurements reported in US20020151581A1, “Glucose and lipid lowering compounds” (priority 1998, published 2002).

How the values were obtained:
[1] = biological target: T1, hormone-sensitive lipase derived from a preparation of 3T3-cell lysate (Mus musculus, UniProt P54310); test: Inhibition of hormone-sensitive lipase from 3T3-L1 cell lysate on glycerol-stabilized triolein; type: biochemical; conditions: test compound 100 μM
T1 construct: hormone-sensitive lipase derived from a preparation of 3T3-cell lysate; endogenous in cells; host or cells: 3T3-L1 cell lysate
T1 sequence (P54310 1-759): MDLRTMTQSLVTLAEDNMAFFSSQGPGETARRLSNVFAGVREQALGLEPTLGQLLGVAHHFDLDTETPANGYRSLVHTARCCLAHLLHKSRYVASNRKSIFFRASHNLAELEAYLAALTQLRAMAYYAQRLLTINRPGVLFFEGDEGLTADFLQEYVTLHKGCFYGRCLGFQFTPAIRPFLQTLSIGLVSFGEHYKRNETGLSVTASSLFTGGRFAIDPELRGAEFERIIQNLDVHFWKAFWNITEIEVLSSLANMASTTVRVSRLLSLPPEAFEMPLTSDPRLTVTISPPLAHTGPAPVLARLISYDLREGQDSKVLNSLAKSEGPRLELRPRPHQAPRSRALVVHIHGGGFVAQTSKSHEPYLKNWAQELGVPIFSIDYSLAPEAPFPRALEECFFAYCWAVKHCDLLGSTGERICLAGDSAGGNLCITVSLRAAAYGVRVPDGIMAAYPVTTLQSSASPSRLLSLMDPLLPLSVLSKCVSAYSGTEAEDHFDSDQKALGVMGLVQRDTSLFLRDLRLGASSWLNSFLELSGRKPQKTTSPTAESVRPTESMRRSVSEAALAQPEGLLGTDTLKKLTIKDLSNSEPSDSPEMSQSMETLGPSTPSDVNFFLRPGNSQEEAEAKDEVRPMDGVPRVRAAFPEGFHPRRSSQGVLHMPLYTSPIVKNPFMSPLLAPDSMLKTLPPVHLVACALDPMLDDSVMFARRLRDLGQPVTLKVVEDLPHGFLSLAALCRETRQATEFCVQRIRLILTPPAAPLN
Protocol: Recombinant hormone-sensitive lipase protein isolated from a bacterial expression vector was pre-incubated with a compound of the invention (e.g., 100 μM) prior to the addition of substrate, emulsified triolein phosphatidylcholine/phosphatidylinositol (PC/PI), to initiate the reaction. At various time points, aliquots of the reaction were taken, and the level of glycerol used as an index of enzyme activity. Pharmacological specificity is determined by incubating test compound with other mammalian and non-mammalian lipase enzyme systems to assess inhibition of activity. The assay was conducted using triolein concentrations from 42 μM to 835 μM.
In a similar manner to that described in Example 4 above, 2α-benzoyloxy-4,5,7,8,11αH-eudesman-8,12-olide at 100 μM was evaluated for ability to activity of recombinant hormone-sensitive lipase and hormone-sensitive lipase derived from a preparation of 3T3-cell lysate on glycerol-stabilized triolein.

lipoprotein lipase = biological target: T2, lipoprotein lipase (Homo sapiens, UniProt P06858); test: Inhibition of lipoprotein lipase, glycerol stabilized triolein substrate; type: biochemical; conditions: test compound 100 μM
T2 sequence (P06858 28-475): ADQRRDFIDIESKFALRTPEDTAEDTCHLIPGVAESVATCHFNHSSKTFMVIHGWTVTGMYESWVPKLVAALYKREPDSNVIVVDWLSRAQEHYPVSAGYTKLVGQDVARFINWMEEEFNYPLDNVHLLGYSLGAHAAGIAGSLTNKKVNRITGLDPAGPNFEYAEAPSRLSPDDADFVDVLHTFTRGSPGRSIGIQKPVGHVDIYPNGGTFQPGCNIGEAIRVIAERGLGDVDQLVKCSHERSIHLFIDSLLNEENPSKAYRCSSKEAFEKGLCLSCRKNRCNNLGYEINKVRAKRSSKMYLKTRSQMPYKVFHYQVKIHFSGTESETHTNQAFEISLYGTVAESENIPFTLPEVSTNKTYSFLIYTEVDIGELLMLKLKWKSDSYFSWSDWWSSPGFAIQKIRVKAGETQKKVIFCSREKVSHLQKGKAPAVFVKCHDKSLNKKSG

CC1C[C@H](OC(=O)c2ccccc2)C[C@]2(C)C[C@H]3OC(=O)[C@@H](C)[C@H]3CC12 (stereo partly drawn) [2α-benzoyloxy-4,5,7,8,11αH-eudesman-8,12-olide]
inhibition at 100 µM ([1]; triolein 30 μM): 63% | inhibition at 100 µM ([1]; triolein 67 μM): 56% | inhibition at 100 µM ([1]; triolein 100 μM): 51% | inhibition at 100 µM ([1]; triolein 201 μM): 41% | inhibition at 100 µM ([1]; triolein 400 μM): 38% | inhibition at 100 µM ([1]; triolein 601 μM): 30% | inhibition at 100 µM ([1]; triolein 800 μM): 18% | inhibition at 100 µM ([1]; triolein 1000 μM): 15% | inhibition of lipoprotein lipase (in words) (lipoprotein lipase): failed to significantly inhibit | Lipoprotein Lipase + test compound (enzyme activity) (lipoprotein lipase; triolein substrate 30 μM): 0.7 | Lipoprotein Lipase + test compound (enzyme activity) (lipoprotein lipase; triolein substrate 67 μM): 1.8 | Lipoprotein Lipase + test compound (enzyme activity) (lipoprotein lipase; triolein substrate 134 μM): 4.9 | Lipoprotein Lipase + test compound (enzyme activity) (lipoprotein lipase; triolein substrate 264 μM): 10.3 | Lipoprotein Lipase + test compound (enzyme activity) (lipoprotein lipase; triolein substrate 1000 μM): 67.4
